In data set [1] the test system is RAW264.7. The data set can be described thus: Antiinflammatory activity in mouse RAW264.7 cells assessed as inhibition of LPS-induced NO production after 24 hrs by Griess assay. Type of data set: functional, cell-based. The following applies: RAW264.7, 24 h. (In general: Nitrite, measured by Griess reagent, commonly stands in for NO production.)
The test system of data set [2] is RAW264.7. As to the kind of experiment: Cytotoxicity against mouse RAW264.7 cells after 24 hrs by MTT assay. Type of data set: cell-based. Conditions: raw264.7, 24 h. Background: Formazan colour is commonly taken as a measure of viable cells.

Molecules are shown by their SMILES.

The text below walks through data of ChEMBL document CHEMBL3393031, “Inhibitory constituents of Sophora tonkinensis on nitric oxide production in RAW 264.7 macrophages” (Bioorg Med Chem Lett, 2015).

`O=c1cc(-c2ccc(O)cc2)oc2cc(O)ccc12`: the IC50 in data set [1] was greater than 50 µM. Moreover, the Activity entry in data set [2] is reported as “Non-toxic”.

Take `CC(C)=CCc1cc([C@@H]2CC(=O)c3ccc(O)c(CC=C(C)C)c3O2)cc(CC=C(C)C)c1O`: in data set [1], the IC50 is 28.1 µM. The Activity entry in data set [2] is “Non-toxic”.

For `C/C=C/C(=O)OC[C@H]1O[C@@H](Oc2ccc3c(c2)OC[C@H]2c4cc5c(cc4O[C@@H]32)OCO5)[C@H](O)[C@@H](O)[C@@H]1O`, the IC50 in data set [1] was 33 µM. Further, the Activity result in data set [2] is recorded as “Non-toxic”.

Take `CC(C)=CCc1cc([C@@H]2CC(=O)c3ccc(O)c(CC=C(C)C)c3O2)cc2c1OC(C)(C)C=C2`: the IC50 in data set [1] was 13.6 µM. For the same molecule, the Activity result in data set [2] is reported as “Non-toxic”.

As to `COc1cc([C@@H]2OC[C@@H]3[C@H]2CO[C@H]3c2ccc(O)c(OC)c2)ccc1O` [(+)-PINORESINOL], the IC50 in data set [1] came out at 45.1 µM. Moreover, the Activity result in data set [2] was “Non-toxic”.

With `COc1ccc(-c2coc3cc(O)ccc3c2=O)cc1O` [CALYCOSIN], in data set [1], the IC50 is greater than 50 µM. In data set [2], the Activity result is on record as “Non-toxic”.

Turning to `O=c1c(-c2ccc(O)cc2)coc2cc(O)cc(O)c12` [GENISTEIN], the half-inhibitory concentration (IC50) in data set [1] was greater than 50 µM. Further, in data set [2], the Activity result is listed as “Non-toxic”.

As for `Oc1ccc2c(c1)OC[C@H]1c3cc4c(cc3O[C@@H]21)OCO4` [MAACKIAIN], in data set [1], the IC50 was found to be 27 µM. For the same molecule, in data set [2], the Activity result is recorded as “Non-toxic”.

Take `COc1cc([C@H]2OC[C@@H]3C(c4cc(OC)c(O)c(OC)c4)OC[C@H]23)ccc1O` (some centres not stated) [MEDIORESINOL]: the IC50 in data set [1] amounted to 41 µM. In data set [2], the Activity entry is given as “Non-toxic”.

For `N=C(N)NN` [PIMAGEDINE], the IC50 in data set [1] is 18.7 µM. The Activity result in data set [2] is recorded as “Non-toxic”.

As for `COc1cc([C@H]2OC[C@H]3[C@@H]2CO[C@@H]3c2cc(OC)c(O)c(OC)c2)cc(OC)c1O` [SYRINGARESINOL], the IC50 in data set [1] is greater than 50 µM. The Activity result in data set [2] was “Non-toxic”.

As usually defined, the IC50 is the concentration needed to halve the response being measured.
